The supplement of paper PMC10307832

Assays:
Assay in all cases: relative viability (nuclei count vs DMSO), 5 days (fraction); higher = more cells survive
SW 1573 = test system: SW 1573
Outline: (§1)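 Dosing by pin tool came one day after lung cancer cell lines were seeded in 1536-well plates, using either one drug or a fixed anchor-drug dose plus five library-drug doses (not always all listed) in √10 steps. After 5 days, nuclei were counted on 4× images. Relative viability is treated-well nuclei count divided by vehicle-well nuclei count, and values are medians of duplicate plates.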

NCI-H1793 = test system: NCI-H1793
Outline: as §1

201T = test system: 201T
Outline: as §1

NCI-H596 = test system: NCI-H596
Outline: as §1

EPLC-272H = test system: EPLC-272H
Outline: as §1

NCI-H2087 = test system: NCI-H2087
Outline: as §1

COR-L23 = test system: COR-L23
Outline: as §1

NCI-H460 = test system: NCI-H460
Outline: as §1

HCC-827 = test system: HCC-827
Outline: as §1

LK-2 = test system: LK-2
Outline: as §1

BEN = test system: BEN
Outline: as §1

NCI-H1651 = test system: NCI-H1651
Outline: as §1

EMC-BAC-2 = test system: EMC-BAC-2
Outline: as §1

HCC-44 = test system: HCC-44
Outline: as §1

NCI-H1915 = test system: NCI-H1915
Outline: as §1

NCI-H2126 = test system: NCI-H2126
Outline: as §1

NCI-H2347 = test system: NCI-H2347
Outline: as §1

LXF-289 = test system: LXF-289
Outline: as §1

NCI-H1650 = test system: NCI-H1650
Outline: as §1

A-427 = test system: A-427
Outline: as §1

EKVX = test system: EKVX
Outline: as §1

## Cc1cnc(-c2cnc(NCCNc3ccc(C#N)cn3)nc2-c2ccc(Cl)cc2Cl)[nH]1 + CC1(C)CCC(c2ccc(Cl)cc2)=C(CN2CCN(c3ccc(C(=O)NS(=O)(=O)c4ccc(N[C@H](CCN5CCOCC5)CSc5ccccc5)c(S(=O)(=O)C(F)(F)F)c4)cc3)CC2)C1 [Navitoclax] (partner 0.5 µM)
SW 1573; first compound 0.08 µM
  relative viability: 1.29
SW 1573; first compound 0.253 µM
  relative viability: 0.801
SW 1573; first compound 0.8 µM
  relative viability: 1.01
SW 1573; first compound 2.53 µM
  relative viability: 0.685
NCI-H1793; first compound 0.08 µM
  relative viability: 0.399
NCI-H1793; first compound 0.253 µM
  relative viability: 0.446
NCI-H1793; first compound 0.8 µM
  relative viability: 0.283
NCI-H1793; first compound 2.53 µM
  relative viability: 0.354
201T; first compound 0.08 µM
  relative viability: 1.19
201T; first compound 0.253 µM
  relative viability: 1.17
201T; first compound 0.8 µM
  relative viability: 1.2
201T; first compound 2.53 µM
  relative viability: 1.23
NCI-H596; first compound 0.08 µM
  relative viability: 1.1
NCI-H596; first compound 0.253 µM
  relative viability: 0.79
NCI-H596; first compound 0.8 µM
  relative viability: 0.882
NCI-H596; first compound 2.53 µM
  relative viability: 0.897
EPLC-272H; first compound 0.08 µM
  relative viability: 1.22
EPLC-272H; first compound 0.253 µM
  relative viability: 1.31
EPLC-272H; first compound 0.8 µM
  relative viability: 1.12
EPLC-272H; first compound 2.53 µM
  relative viability: 1.07
NCI-H2087; first compound 0.08 µM
  relative viability: 0.88
NCI-H2087; first compound 0.253 µM
  relative viability: 0.966
NCI-H2087; first compound 0.8 µM
  relative viability: 1.03
NCI-H2087; first compound 2.53 µM
  relative viability: 0.967
COR-L23; first compound 0.08 µM
  relative viability: 1.07
COR-L23; first compound 0.253 µM
  relative viability: 1.03
COR-L23; first compound 0.8 µM
  relative viability: 1.09
COR-L23; first compound 2.53 µM
  relative viability: 1.06
NCI-H460; first compound 0.08 µM
  relative viability: 1.16
NCI-H460; first compound 0.253 µM
  relative viability: 1.12
NCI-H460; first compound 0.8 µM
  relative viability: 1.17
NCI-H460; first compound 2.53 µM
  relative viability: 1.04
HCC-827; first compound 0.08 µM
  relative viability: 1.04
HCC-827; first compound 0.8 µM
  relative viability: 1.05
HCC-827; first compound 2.53 µM
  relative viability: 1.05
LK-2; first compound 0.08 µM
  relative viability: 1.01
LK-2; first compound 0.253 µM
  relative viability: 0.9
LK-2; first compound 0.8 µM
  relative viability: 0.872
LK-2; first compound 2.53 µM
  relative viability: 1.28
BEN; first compound 0.08 µM
  relative viability: 0.0701
BEN; first compound 0.253 µM
  relative viability: 0.0548
BEN; first compound 0.8 µM
  relative viability: 0.0658
BEN; first compound 2.53 µM
  relative viability: 0.0673
NCI-H1651; first compound 0.08 µM
  relative viability: 1.09
NCI-H1651; first compound 0.253 µM
  relative viability: 0.874
NCI-H1651; first compound 0.8 µM
  relative viability: 1.06
NCI-H1651; first compound 2.53 µM
  relative viability: 1.2
EMC-BAC-2; first compound 0.08 µM
  relative viability: 1.17
EMC-BAC-2; first compound 0.253 µM
  relative viability: 1.05
EMC-BAC-2; first compound 0.8 µM
  relative viability: 1.18
EMC-BAC-2; first compound 2.53 µM
  relative viability: 1.18
HCC-44; first compound 0.08 µM
  relative viability: 1.05
HCC-44; first compound 0.253 µM
  relative viability: 0.792
HCC-44; first compound 0.8 µM
  relative viability: 0.971
HCC-44; first compound 2.53 µM
  relative viability: 1.03
NCI-H1915; first compound 0.08 µM
  relative viability: 0.85
NCI-H1915; first compound 0.8 µM
  relative viability: 0.704
NCI-H1915; first compound 2.53 µM
  relative viability: 0.778
NCI-H2126; first compound 0.08 µM
  relative viability: 0.881
NCI-H2126; first compound 0.253 µM
  relative viability: 0.897
NCI-H2126; first compound 0.8 µM
  relative viability: 0.878
NCI-H2126; first compound 2.53 µM
  relative viability: 0.835
NCI-H2347; first compound 0.08 µM
  relative viability: 0.947
NCI-H2347; first compound 0.253 µM
  relative viability: 0.625
NCI-H2347; first compound 0.8 µM
  relative viability: 0.832
NCI-H2347; first compound 2.53 µM
  relative viability: 0.857
LXF-289; first compound 0.08 µM
  relative viability: 0.934
LXF-289; first compound 0.253 µM
  relative viability: 0.873
LXF-289; first compound 0.8 µM
  relative viability: 0.924
LXF-289; first compound 2.53 µM
  relative viability: 1.01
NCI-H1650; first compound 0.08 µM
  relative viability: 1.13
NCI-H1650; first compound 0.253 µM
  relative viability: 1.05
NCI-H1650; first compound 0.8 µM
  relative viability: 1.42
NCI-H1650; first compound 2.53 µM
  relative viability: 1.21
A-427; first compound 0.08 µM
  relative viability: 0.939
A-427; first compound 0.253 µM
  relative viability: 0.947
A-427; first compound 0.8 µM
  relative viability: 0.973
A-427; first compound 2.53 µM
  relative viability: 0.925
EKVX; first compound 0.08 µM
  relative viability: 0.715
EKVX; first compound 0.253 µM
  relative viability: 0.844
EKVX; first compound 0.8 µM
  relative viability: 0.905
EKVX; first compound 2.53 µM
  relative viability: 0.814
